For experiment [1], the system named is IL-23-stimulated phosphorylated STAT3 in peripheral blood mononuclear cells (PBMCs). The experiment can be described thus: PBMC pSTAT3 Assay. The experiment is classed as cell-based. Conditions: PBMCs from healthy donors; 30 min preincubation with peptide; IL-23 5 ng/mL for 30 min; phospho-STAT3 by MSD. In a few lines: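 Healthy-donor PBMCs expanded 4 days on anti-CD3 with 100 ng/mL IL-1β, starved ~4 h in RPMI-0.1% BSA, preincubated 30 min with peptide, then stimulated 30 min at 37 °C with 5 ng/mL IL-23. Lysate pSTAT3 measured by MSD phospho-STAT panel; IC50 derived.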

The target in the next experiment is T1, IL-23R (Homo sapiens, UniProt Q5VWK5).
T1 construct: HEK293 cells containing IL-23R, IL-12Rβ1 and a firefly luciferase reporter gene driven by a STAT-inducible promoter (Promega); host or cells: HEK293
T1 sequence (Q5VWK5 24-629): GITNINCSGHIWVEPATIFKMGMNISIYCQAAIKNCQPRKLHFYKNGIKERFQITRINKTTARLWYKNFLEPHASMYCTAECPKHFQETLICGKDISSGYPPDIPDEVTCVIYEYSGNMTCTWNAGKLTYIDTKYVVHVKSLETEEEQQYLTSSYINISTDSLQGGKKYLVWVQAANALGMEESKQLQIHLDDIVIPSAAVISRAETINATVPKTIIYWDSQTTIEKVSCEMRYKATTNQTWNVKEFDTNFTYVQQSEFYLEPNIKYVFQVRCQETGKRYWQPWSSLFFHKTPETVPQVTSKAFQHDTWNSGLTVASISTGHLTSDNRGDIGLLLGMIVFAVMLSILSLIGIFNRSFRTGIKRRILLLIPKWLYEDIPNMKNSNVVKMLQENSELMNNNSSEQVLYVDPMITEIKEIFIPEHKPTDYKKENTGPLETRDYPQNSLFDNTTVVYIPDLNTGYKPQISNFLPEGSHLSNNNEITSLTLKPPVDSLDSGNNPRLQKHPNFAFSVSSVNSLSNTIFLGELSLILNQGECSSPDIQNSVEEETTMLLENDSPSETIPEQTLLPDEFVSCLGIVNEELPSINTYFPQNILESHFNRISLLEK
As to the kind of experiment: IL23R Reporter Assay. It is filed as cell-based. The conditions noted are these: HEK293 cells containing IL-23R, IL-12Rβ1 and STAT-inducible firefly luciferase reporter; 10 ng/mL IL-23 (EC90); 5 h. In a few lines:
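HEK293 cells carrying IL-23R, IL-12Rβ1 and a STAT-driven firefly luciferase reporter (4000 cells/well) received compound, then 10 ng/mL IL-23 solution (EC90), and were incubated for 5 h at 37° C. BioGlo luminescence was normalised to IL-23 alone (0%) and 30 μM control inhibitor (100%). IC50 came from a 4-parameter Hill fit.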
(In general: A reporter such as luciferase makes a cellular process visible.)

*1 amine or outer side, *2 acyl side, *3 side chain or, on linkers, in order; H or OH if unused. Where a SMILES comes first, the peptide text is derived from it. Bridges are numbered along the chain shown (N, C = ends). Side-chain parts run from the residue outwards. [ ]: non-standard residue; d: D form. The star is where a group is joined. Me3N+(CH2)2O(CH2)2O(CH2)2CO = C[N+](C)(C)CCOCCOCCC(=O)*; X24 = O=C(O)CCCCCCCCCCCCCCCCCN[C@@H](CCC(=O)*)C(=O)O; NH(CH2CH2O)2CH2CH2NMe3+ = C[N+](C)(C)CCOCCOCCN*; Trp(7-Me) = Cc1cccc2c(C[C@H](N)C(=O)O)c[nH]c12; Hexanoyl(6-NMe3+) = C[N+](C)(C)CCCCCC(=O)*; C18 diacid = O=C(O)CCCCCCCCCCCCCCCCC(=O)*; γGlu = O=C(O)[C@H](CCC(=O)[*:2])N[*:1]; 2Nal = N[C@@H](Cc1ccc2ccccc2c1)C(=O)O; AEF = NCCOc1ccc(C[C@H](N)C(=O)O)cc1; 2Pal = N[C@@H](Cc1ccccn1)C(=O)O; 3Pal = N[C@@H](Cc1cccnc1)C(=O)O; Lys(Me) = CNCCCC[C@H](N)C(=O)O; Pen = CC(C)(S)[C@H](N)C(=O)O; Thp = NC1(C(=O)O)CCOCC1; X1 = C[N+](C)(C)CCCCC*; AEEA = NCCOCCOCC(=O)O; Sar = CNCC(=O)O

A word on the IC50: it is the concentration at which inhibition is half-maximal. Lower therefore signals greater potency. As to `CC(=O)NCCCC[C@@H]1NC(=O)[C@H](Cc2c[nH]c3c(C)cccc23)NC(=O)[C@H]([C@@H](C)O)NC(=O)[C@H](CC(N)=O)NC(=O)[C@@H](NC(=O)[C@@H](CCCNC(=N)N)NC(=O)COCCOCCNC(=O)COCCOCCNC(=O)CC[C@H](NC(=O)CCCCCCCCCCCCCCCCC(=O)O)C(=O)O)C(C)(C)SSC(C)(C)[C@@H](C(=O)N[C@@H](Cc2ccc(OCCN)cc2)C(=O)N[C@@H](Cc2ccc3ccccc3c2)C(=O)NC2(C(=O)N[C@@H](CCC(=O)O)C(=O)N[C@@H](CC(N)=O)C(=O)N[C@@H](Cc3cccnc3)C(=O)N(C)CC(=O)NCCOCCOCC[N+](C)(C)C)CCOCC2)NC1=O` [compound 67, HOC18gEPEG2PEG2CO-r-Pen(3)-N-T-7MeW-K(Ac)-Pen(3)-AEF-2Nal-THP-E-N-3Pya-Sar-CONH(PEG3a)] ({C18 diacid-γGlu-AEEA-AEEA}-[dR][Pen]NT[Trp(7-Me)]K(Ac)[Pen][AEF][2Nal][Thp]EN[3Pal][Sar]-{NH(CH2CH2O)2CH2CH2NMe3+}; disulfide 2-7), the IC50 in experiment [1] was in the range of 0.0005 to 0.005 µM; against IL-23R, 0.05 to 0.5 µM.

`CC(=O)N[C@H](CCCNC(=N)N)C(=O)N[C@@H]1C(=O)N[C@@H](CC(N)=O)C(=O)N[C@@H]([C@@H](C)O)C(=O)N[C@@H](Cc2c[nH]c3c(C)cccc23)C(=O)N[C@@H](CCCCN(C)C(=O)CCOCCOCC[N+](C)(C)C)C(=O)N[C@H](C(=O)N[C@@H](Cc2ccc(OCCN)cc2)C(=O)N[C@@H](Cc2ccc3ccccc3c2)C(=O)NC2(C(=O)N[C@@H](CCC(=O)O)C(=O)N[C@@H](CC(N)=O)C(=O)N[C@@H](Cc3cccnc3)C(=O)N(C)CC(=O)N[C@@H](CCCCNC(=O)COCCOCCNC(=O)COCCOCCNC(=O)CC[C@H](NC(=O)CCCCCCCCCCCCCCCCC(=O)O)C(=O)O)C(N)=O)CCOCC2)C(C)(C)SSC1(C)C` [compound 70, MeCO-r-Pen(3)-N-T-7MeW-K(NMecPEG3a)-Pen(3)-AEF-2Nal-THP-E-N-3Pya-Sar-K(PEG2PEG2C18OH)-CONH2] (Ac-[dR][Pen]NT[Trp(7-Me)][Lys(Me)](Me3N+(CH2)2O(CH2)2O(CH2)2CO)[Pen][AEF][2Nal][Thp]EN[3Pal][Sar]K([AEEA-AEEA-γGlu-C18 diacid])-NH2; disulfide 2-7): the IC50 in experiment [1] was under 0.0005 µM; at IL-23R, under 0.05 µM.

Consider `Cc1cccc2c(C[C@@H]3NC(=O)[C@H]([C@@H](C)O)NC(=O)[C@H](CC(N)=O)NC(=O)[C@@H](NC(=O)[C@@H](CCCNC(=N)N)NC(=O)CCCCC[N+](C)(C)C)C(C)(C)SSC(C)(C)[C@@H](C(=O)N[C@@H](Cc4ccc(OCCN)cc4)C(=O)N[C@@H](Cc4ccc5ccccc5c4)C(=O)NC4(C(=O)N[C@@H](CCC(=O)O)C(=O)N[C@@H](CC(N)=O)C(=O)N[C@@H](Cc5cccnc5)C(=O)N(C)CC(N)=O)CCOCC4)NC(=O)[C@H](CCCCNC(=O)COCCOCCNC(=O)COCCOCCNC(=O)CC[C@H](NCCCCCCCCCCCCCCCCCC(=O)O)C(=O)O)NC3=O)c[nH]c12` [compound 71, 5cpaCO-r-Pen(3)-N-T-7MeW-K(PEG2PEG2C18OH)-Pen(3)-AEF-2Nal-THP-E-N-3Pya-Sar-CONH2] ({Hexanoyl(6-NMe3+)}-[dR][Pen]NT[Trp(7-Me)]K([AEEA-AEEA-X24])[Pen][AEF][2Nal][Thp]EN[3Pal][Sar]-NH2; disulfide 2-7), for which the IC50 in experiment [1] was under 0.0005 µM; against IL-23R, 0.05 to 0.5 µM.

With `Cc1cccc2c(C[C@@H]3NC(=O)[C@H]([C@@H](C)O)NC(=O)[C@H](CC(N)=O)NC(=O)[C@@H](NC(=O)[C@@H](CCCNC(=N)N)NC(=O)CCOCCOCC[N+](C)(C)C)C(C)(C)SSC(C)(C)[C@@H](C(=O)N[C@@H](Cc4ccc(OCCN)cc4)C(=O)N[C@@H](Cc4ccc5ccccc5c4)C(=O)NC4(C(=O)N[C@@H](CCC(=O)O)C(=O)N[C@@H](CC(N)=O)C(=O)N[C@@H](Cc5cccnc5)C(=O)N(C)CC(N)=O)CCOCC4)NC(=O)[C@H](CCCCNC(=O)COCCOCCNC(=O)COCCOCCNC(=O)CC[C@H](NC(=O)CCCCCCCCCCCCCCCCC(=O)O)C(=O)O)NC3=O)c[nH]c12` [compound 72, cPEG3aCO-r-Pen(3)-N-T-7MeW-K(PEG2PEG2C18OH)-Pen(3)-AEF-2Nal-THP-E-N-3Pya-Sar-CONH2] ({Me3N+(CH2)2O(CH2)2O(CH2)2CO}-[dR][Pen]NT[Trp(7-Me)]K([AEEA-AEEA-γGlu-C18 diacid])[Pen][AEF][2Nal][Thp]EN[3Pal][Sar]-NH2; disulfide 2-7), the half-inhibitory concentration (IC50) was under 0.0005 µM in experiment [1] and 0.05 to 0.5 µM at IL-23R.

In the case of `CC(=O)NCCCC[C@@H]1NC(=O)[C@H](Cc2c[nH]c3c(C)cccc23)NC(=O)[C@H]([C@@H](C)O)NC(=O)[C@H](CCCCNC(=O)COCCOCCNC(=O)COCCOCCNC(=O)CC[C@H](NC(=O)CCCCCCCCCCCCCCCCC(=O)O)C(=O)O)NC(=O)[C@@H](NC(=O)[C@@H](CCCNC(=N)N)NC(=O)CCCCC[N+](C)(C)C)C(C)(C)SSC(C)(C)[C@@H](C(=O)N[C@@H](Cc2ccc(OCCN)cc2)C(=O)N[C@@H](Cc2ccc3ccccc3c2)C(=O)NC2(C(=O)N[C@@H](CCC(=O)O)C(=O)N[C@@H](CC(N)=O)C(=O)N[C@@H](Cc3cccnc3)C(=O)N(C)CC(N)=O)CCOCC2)NC1=O` [compound 73, 5cpaCO-r-Pen(3)-K(PEG2PEG2gEC18OH)-T-7MeW-K(Ac)-Pen(3)-AEF-2Nal-THP-E-N-3Pya-Sar-CONH2] ({Hexanoyl(6-NMe3+)}-[dR][Pen]K([AEEA-AEEA-γGlu-C18 diacid])T[Trp(7-Me)]K(Ac)[Pen][AEF][2Nal][Thp]EN[3Pal][Sar]-NH2; disulfide 2-7), the IC50 in experiment [1] was under 0.0005 µM; against IL-23R it was 0.05 to 0.5 µM.

For the compound `CC(=O)NCCCC[C@@H]1NC(=O)[C@H](Cc2c[nH]c3c(C)cccc23)NC(=O)[C@H]([C@@H](C)O)NC(=O)[C@H](CCCCNC(=O)COCCOCCNC(=O)COCCOCCNC(=O)CC[C@H](NC(=O)CCCCCCCCCCCCCCCCC(=O)O)C(=O)O)NC(=O)[C@@H](NC(=O)[C@@H](CCCNC(=N)N)NC(C)=O)C(C)(C)SSC(C)(C)[C@@H](C(=O)N[C@@H](Cc2ccc(OCCN)cc2)C(=O)N[C@@H](Cc2ccc3ccccc3c2)C(=O)NC2(C(=O)N[C@@H](CCCCN(C)C(=O)CCOCCOCC[N+](C)(C)C)C(=O)N[C@@H](CC(N)=O)C(=O)N[C@@H](Cc3ccccn3)C(=O)N(C)CC(N)=O)CCOCC2)NC1=O` [compound 74, MeCO-r-Pen(3)-K(PEG2PEG2gEC18OH)-T-7MeW-K(Ac)-Pen(3)-AEF-2Nal-THP-K(NMecPEG3a)-N-3Pya-Sar-CONH2] (Ac-[dR][Pen]K([AEEA-AEEA-γGlu-C18 diacid])T[Trp(7-Me)]K(Ac)[Pen][AEF][2Nal][Thp][Lys(Me)](Me3N+(CH2)2O(CH2)2O(CH2)2CO)N[2Pal][Sar]-NH2; disulfide 2-7), the IC50 in experiment [1] was under 0.0005 µM; on IL-23R, under 0.05 µM.

Consider `CC(=O)NCCCC[C@@H]1NC(=O)[C@H](Cc2c[nH]c3c(C)cccc23)NC(=O)[C@H]([C@@H](C)O)NC(=O)[C@H](CCCCNC(=O)COCCOCCNC(=O)COCCOCCNC(=O)CC[C@H](NC(=O)CCCCCCCCCCCCCCCCC(=O)O)C(=O)O)NC(=O)[C@@H](NC(=O)[C@@H](CCCNC(=N)N)NC(C)=O)C(C)(C)SSC(C)(C)[C@@H](C(=O)N[C@@H](Cc2ccc(OCCCCC[N+](C)(C)C)cc2)C(=O)N[C@@H](Cc2ccc3ccccc3c2)C(=O)NC2(C(=O)N[C@@H](CCC(=O)O)C(=O)N[C@@H](CC(N)=O)C(=O)N[C@@H](Cc3cccnc3)C(=O)N(C)CC(N)=O)CCOCC2)NC1=O` [compound 75, MeCO-r-Pen(3)-K(PEG2PEG2gEC18OH)-T-7MeW-K(Ac)-Pen(3)-TMAPF-2Nal-THP-E-N-3Pya-Sar-CONH2] (Ac-[dR][Pen]K([AEEA-AEEA-γGlu-C18 diacid])T[Trp(7-Me)]K(Ac)[Pen]Y(X1)[2Nal][Thp]EN[3Pal][Sar]-NH2; disulfide 2-7), for which the results for the IC50 (in experiment [1]; against IL-23R) were under 0.0005 µM and under 0.05 µM, respectively.

These data come from US20260250320A1, “LIPIDATED PEPTIDE INHIBITORS OF INTERLEUKIN-23 RECEPTOR” (Janssen Pharmaceutica NV, priority 2023, published 2026).
